Test results taken from PMC6696115, “Characterization of Antimicrobial, Antioxidant, and Leishmanicidal Activities of Schiff Base Derivatives of 4-Aminoantipyrine” (Molecules, 2019).
In brackets after ≈: the same amount, converted by molar mass.

Assays:
[1] = tested on: Aspergillus niger ATCC 6275; test: antimicrobial serial microdilution, A. niger; assay type: cell-based; conditions: Aspergillus niger, ATCC6275; serial microdilution, 96-well plates, 35 °C, 48 h, max 2% DMSO
Experimental: (§1) The in vitro antifungal and antimicrobial activities were determined by testing the Schiff bases against the fungi Saccharomyces cerevisiae, Candida albicans, and Aspergillus niger and the bacteria Staphylococcus aureus, Enterococcus faecalis (Gram-positive), Pseudomonas aeruginosa, and Escherichia coli (Gram-negative).
(§2) The bacterial inoculum was prepared by emulsifying overnight colonies from an agar medium in broth (Mueller–Hinton broth). The suspensions were adjusted to a final organism density of 5 × 10^5 colony former units (cfu)/mL. […] The emulsifying of A. niger cultures was done by pouring 5 mL of saline and 0.1% of polysorbate 80 over the Petri dishes. Then, 100 µL of this suspension were diluted in 5 mL of saline and adjusted to an optical density of 0.1 at 530 nm. For S. cerevisiae, fresh exponential YPAD (yeast extract 1%, peptone 2%, adenine 0.004%, […]) cultures were adjusted to an optical density of 0.5 at 600 nm, and then diluted to the equivalent of 1 × 10^4 cells/mL (10^−3 dilution). Stock solutions of Schiff bases were prepared by dissolving them in DMSO at 10 mg/mL. […] The range of concentrations used was empirically selected for each organisms and the Schiff base. Drug sensitivities were assayed by serial dilutions in 96-well plates as previously described. A row with media and cells but without drug was the positive control. The blank was done by preparing a row with media and drugs, but without cells. Plates were fitted with a tight lid before incubation to prevent desiccation. […] The minimum bactericidal concentration (MBC) and fungicidal concentration (MFC) were determined by spreading 100 µL of culture from each well onto a plate (Mueller–Hinton agar for bacteria, Sabouraud dextrose agar for fungi except S. cerevisiae, and YPAD for S. cerevisiae).

[2] = tested on: Staphylococcus aureus ATCC 29213; test: antimicrobial serial microdilution, S. aureus; assay type: cell-based; conditions: Staphylococcus aureus, ATCC29213; serial microdilution, 37 °C, 24 h
Experimental: as §1, §2

[3] = DPPH radical scavenging assay; assay type: biochemical; conditions: statement in words
Experimental: This was used immediately. The experimental procedure was adapted from the literature. Briefly, in a 96-well plate, 100 µL of solution of DPPH (2, 2-diphenyl-1-picrylhydrazyl) radical (0.2 mM in methanol) was added to 100 µL of methanolic solutions of 3a–j, 4, or 5, prepared as serial two-fold dilutions from the stock solution. Standards were also prepared in the same concentrations.
The percentage of DPPH scavenging was then calculated by using the following formula: % DPPH scavenging=100∗Asample+DPPH−Asample blank/ADPPH−Asolvent

[4] = tested on: S. cerevisiae sod1 mutant (BY4741); test: growth inhibition (OD600) of sod1 mutant yeast, oxidative effect; assay type: cell-based, Saccharomyces cerevisiae
Experimental: (§3) Next, we wanted to evaluate the oxidative activity. To do this, drop test assays were performed with wild-type (W303 and BY4741 backgrounds) and sod1 (BY4741 background) yeast cells in the presence of 200 µg/mL of the analyzed Schiff bases (Figure 3). The SOD1 gene encodes superoxide dismutase 1, an enzyme with a major role in detoxifying ROS species generated during metabolism or because of environmental exposure. sod1 mutant cells are unprotected against oxidative agents, decreasing survival in their presence.
(A) Drop test of serial dilution of yeast cell cultures (wild type from genetic background W303, wild type from genetic background BY4741, and sod1 mutant from genetic background BY4741) exposed to Schiff bases at 200 µg/mL. A control without drug and with 2% DMSO are included.
as §2

[5] = tested on: S. cerevisiae wild-type (W303 and BY4741 backgrounds); test: drop test, wild-type yeast; assay type: cell-based, Saccharomyces cerevisiae; conditions: 200 µg/mL, 48 h, 25 °C
Experimental: Since the Schiff bases have a limited solubility in dimethyl sulfoxide (DMSO), first, we tested the toxicity of DMSO against the selected microorganism. […] Wild-type cells from W303 background seem to be more resistant, and sensitivity is observed at around 4% DMSO.
as §3, with “presence. […] Also, wild-type cells are shown as control, unaffected by the Schiff bases.” for “presence.”
(§4) For the drop test with S. cerevisiae, wild-type strain (background W303), and wild type and sod1 mutant cells (background BY4741) were grown overnight in YPAD media until an optical density of 0.5 at 600 nm was reached (equivalent to 1 × 10^7 cells/mL). Three serial dilutions were prepared and 5 µL of each was spotted onto a plate (approximately 1 × 10^5, 1 × 10^4, 1 × 10^3, and 1 × 10^2 cells/spot). YPAD plates were supplemented with 200 µg/mL of each Schiff base, and one plate supplemented with 2% DMSO and one plate with YPAD without any drug were used as controls. Plates were incubated at 25 °C for 24, 48, and 72 h.

[6] = tested on: S. cerevisiae sod1 mutant cells (background BY4741); test: drop test, sod1 mutant yeast; assay type: cell-based, Saccharomyces cerevisiae; conditions: 200 µg/mL, 48 h, 25 °C, compared to control
Experimental: as §3, with “presence. […] Also, wild-type cells are shown as control, unaffected by the Schiff bases.” for “presence.”
as §4

With `Cc1c(N=Cc2ccccc2O)c(=O)n(-c2ccccc2)n1C` [Compound 3b, 4-(2-Hydroxybenzylideneamino)-1,5-dimethyl-2-phenyl-1H-pyrazol-3(2H)-one] the MIC [1] was greater than 200 µg/mL, the MIC [2] was greater than 200 µg/mL and the “antioxidant activity detected in the DPPH assay” value [3] was “no significant antioxidant activity”. The IC50 ([4]; Saccharomyces cerevisiae, read-out: IC50 sod1) was 101 µg/mL (≈ 328 µM), the “NIC sod1” value ([4]; sod1 mutant BY4741, unit not given) was 53.3 ± 0.1 and the “MIC sod1” value ([4]; sod1 mutant BY4741, unit not given, in µg/mL) was 164.1 ± 0.1. The “effect on wild-type cells in drop test” value [5] was “unaffected” and the “sensitivity of sod1 cells in drop test” value [6] was “sensitive”.
